Measurements taken from US20090306122A1, “SUBSTITUTED TETRAHYDROPYRROLOQUINOLINE DERIVATIVES AS KINASE MODULATORS, ESPECIALLY OF TYROSINE AND RAF KINASES” (priority 2005, published 2009).

Target: T1, IGF1-R kinase (Homo sapiens, UniProt P08069)
T1 construct: purchased ProQinase
Assay: Assay for the determination of IGF1-R kinase inhibition (AlphaScreen)
Type: biochemical
Settings: ATP 1 μM, biotinylated poly Glu, Tyr 4:1
Excerpt: Assay for the Determination of IGF1-R Kinase Inhibition
Lit.: G. Warner et al., Current Medicinal Chemistry, 2004, 11, 721-730
Use is made of AlphaScreen technology [(Amplified Luminescent Proximity Homogenous Assay), PerkinElmer], which is based on the amplification of a signal generated on interaction of so-called donor and acceptor beads. The convergence of two molecules can be measured very sensitively via this system.
The AlphaScreen test is based on traditional kinase tests, with the exception that the kinase activity is detected non-radioactively.
The binding of molecules which have been captured on the beads results in energy transfer from one bead to the other, which ultimately results in a luminescence/fluorescence signal.
In the absence of IGF1-R kinase activity, no signal is detected.
The kinase phosphorylates the biotinylated polypeptide (poly Glu, Tyr, 4:1) on the tyrosine.
The phosphorylated biotinylated peptide binds to streptavidin donor beads (biotin-streptavidin binding). The anti-phospho-tyrosine P-Tyr-100 antibody bound to the acceptor beads binds to phospho-tyrosine via the antigen binding site, giving a complex of:
Donor bead-streptavidin <->biotin-phosphopeptide (P substrate)<->antiphospho antibody-acceptor bead
If light having a wavelength of 680 nm is incident, the donor beads produce singlet oxygen, which, on adequate spatial proximity of the acceptor beads (only on formation of complex), causes the latter to emit at 520/620 nm.
Test procedure: the test is carried out in a 384-well OptiPlate™-384 Art.: 6007290 from Perkin Elmer
IGF1-R, enzyme from “ProQinase” • IGF1-R, 20 μl • Final concentration: 0.5 ng of kinase/well • (in 50 mM MOPS assay buffer pH 7.0 (comprising 0.20 mM • EDTA; 5.0 mM MnCl2; 10 mM MgCl2; 0.002% of BriJ; 0.002% of 2-mercaptoethanol and 0.1% of BSA) • +Test substance or standard sample, 3.0 μl • are pipetted into MTP well, shaken briefly and pre-incubated.
Pre-incubation: 30 minutes at RT (with continuous gentle shaking)
ATP/biotinylated substrate mix, 10 μl is added • ATP adenosine 5′-triphosphate, disodium salt (Calbiochem)/biotinylated poly Glu, Tyr, 4:1 (from Perkin Elmer) • Final concentration of ATP: 1 μM • Final concentration of biotinylated poly Glu, Tyr, 4:1:1 nM • Shake briefly and incubate. • Incubation: 45 minutes at RT (with continuous gentle shaking) 3. • Beads, P-Tyr-100 acceptor beads; antiphosphotyrosine (P-Tyr-100) acceptor beads • and simultaneously Streptavidin donor beads, 20 μl, are pipetted into well in a darkened room and shaken briefly. • Final concentration: 5 μg/ml of beads • Acceptor/donor beads are prepared shortly in advance in AlphaScreen detection/stop buffer (25 mM HEPES buffer comprising 100 mM NaCl, 0.1% of BSA, 100 mM EDTA). • This is followed by • Incubation: 20 hours at RT in the dark • Measurement: on the fusion a screen in Alpha programme 1 sec.

T1 sequence (P08069 31-1367): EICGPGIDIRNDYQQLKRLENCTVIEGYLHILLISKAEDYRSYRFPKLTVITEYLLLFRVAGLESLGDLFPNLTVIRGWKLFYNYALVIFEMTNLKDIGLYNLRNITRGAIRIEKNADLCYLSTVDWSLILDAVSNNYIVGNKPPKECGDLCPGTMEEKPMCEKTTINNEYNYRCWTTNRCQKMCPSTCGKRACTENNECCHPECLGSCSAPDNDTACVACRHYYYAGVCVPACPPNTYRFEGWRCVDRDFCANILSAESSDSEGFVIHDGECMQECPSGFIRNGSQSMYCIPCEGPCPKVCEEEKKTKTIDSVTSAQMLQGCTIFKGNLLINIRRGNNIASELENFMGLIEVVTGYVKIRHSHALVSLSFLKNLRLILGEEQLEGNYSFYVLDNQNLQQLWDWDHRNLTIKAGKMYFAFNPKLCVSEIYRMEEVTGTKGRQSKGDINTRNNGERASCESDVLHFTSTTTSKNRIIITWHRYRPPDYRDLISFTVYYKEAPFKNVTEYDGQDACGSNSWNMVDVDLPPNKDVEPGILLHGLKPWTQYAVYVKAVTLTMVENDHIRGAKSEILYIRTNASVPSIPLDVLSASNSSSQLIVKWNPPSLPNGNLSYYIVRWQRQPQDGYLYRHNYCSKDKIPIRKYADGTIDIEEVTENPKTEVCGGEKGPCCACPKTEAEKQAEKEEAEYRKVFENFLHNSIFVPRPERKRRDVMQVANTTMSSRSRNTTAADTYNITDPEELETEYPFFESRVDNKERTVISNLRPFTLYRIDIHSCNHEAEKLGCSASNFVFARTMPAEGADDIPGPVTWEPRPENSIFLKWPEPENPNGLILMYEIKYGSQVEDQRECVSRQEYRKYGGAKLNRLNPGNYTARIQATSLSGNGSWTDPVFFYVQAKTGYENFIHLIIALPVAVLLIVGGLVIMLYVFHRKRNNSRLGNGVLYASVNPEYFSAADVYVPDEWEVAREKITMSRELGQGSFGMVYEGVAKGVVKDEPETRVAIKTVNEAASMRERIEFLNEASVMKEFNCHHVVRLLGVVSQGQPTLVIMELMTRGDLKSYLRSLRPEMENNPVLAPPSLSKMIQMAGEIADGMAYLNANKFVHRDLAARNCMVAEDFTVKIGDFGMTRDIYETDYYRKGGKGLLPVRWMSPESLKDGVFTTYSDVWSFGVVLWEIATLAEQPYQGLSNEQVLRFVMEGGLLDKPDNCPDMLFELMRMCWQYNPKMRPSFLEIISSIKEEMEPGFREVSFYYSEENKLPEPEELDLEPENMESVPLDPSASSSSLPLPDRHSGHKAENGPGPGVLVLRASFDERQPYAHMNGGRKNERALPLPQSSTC

| Compound | IC50 [nM] |
| --- | --- |
| O=C1CCCN1C1CC(c2cccc(-c3ccc(F)cc3)c2)N2CCc3cccc1c32 (centres unmarked) [Compound 42] | 5500 |
| O=C1CCCN1C1CC(c2ccccc2OCc2ccccc2)N2CCc3cccc1c32 (centres unmarked) [Compound 29] | 1100 |
| O=C1CCCN1C1CC(c2ccc(Cl)cc2F)N2CCc3cccc1c32 (centres unmarked) [Compound 4] | 1500 |
| O=C1CCCN1C1CC(c2cc(F)cc(C(F)(F)F)c2)N2CCc3cccc1c32 (centres unmarked) [Compound 20] | 10000 |
| CCc1ccc(C2CC(N3CCCC3=O)c3cccc4c3N2CC4)cc1 (centres unmarked) [Compound 5] | 2200 |
| COc1cc(C2CC(N3CCCC3=O)c3cccc4c3N2CC4)ccc1OC(=O)OC(C)(C)C (centres unmarked) [Compound 36] | 930 |
| COc1cccc(OC)c1C1CC(N2CCCC2=O)c2cccc3c2N1CC3 (centres unmarked) [Compound 28] | 2100 |
| O=C1CCCN1C1CC(c2cccc(Br)c2)N2CCc3cccc1c32 (centres unmarked) [Compound 3] | 1300 |
| CCOc1ccc(C2CC(N3CCCC3=O)c3cccc4c3N2CC4)c(OCC)c1C (centres unmarked) [Compound 35] | 3500 |
| O=C1CCCN1C1CC(c2ccccc2Cl)N2CCc3cc(F)cc1c32 (centres unmarked) [Compound 41] | 4500 |
| O=C1CCCN1C1CC(c2ccccc2F)N2CCc3cccc1c32 (centres unmarked) [Compound 15] | 1500 |
| CC(C)(C)OC(=O)Oc1ccc(C2CC(N3CCCC3=O)c3cccc4c3N2CC4)cc1 (centres unmarked) [Compound 21] | 1800 |
| O=C1CCCN1C1CC(c2cccc(OCc3ccccc3)c2)N2CCc3cccc1c32 (centres unmarked) [Compound 30] | 2800 |
| O=C(O)c1ccc(C2CC(N3CCCC3=O)c3cccc4c3N2CC4)cc1 (centres unmarked) [Compound 45] | 14000 |
| Cc1cccc(C2CC(N3CCCC3=O)c3cccc4c3N2CC4)c1 (centres unmarked) [Compound 10] | 3600 |
| CCCc1ccc(C2CC(N3CCCC3=O)c3cccc4c3N2CC4)cc1 (centres unmarked) [Compound 11] | 3500 |
| CC(C)(C)c1ccc(C2CC(N3CCCC3=O)c3cccc4c3N2CC4)cc1 (centres unmarked) [Compound 8] | 1600 |
| O=C1CCCN1C1CC(c2cccc(Cl)c2)N2CCc3cccc1c32 (centres unmarked) [Compound 6] | 2900 |
| COc1ccccc1C1CC(N2CCCC2=O)c2cccc3c2N1CC3 (centres unmarked) [Compound 32] | 6000 |
| O=C1CCCN1C1CC(c2cccc(-c3cccc(OC(F)(F)F)c3)c2)N2CCc3cccc1c32 (centres unmarked) [Compound 44] | 21000 |
| O=C1CCCN1C1CC(c2cc(F)cc(F)c2)N2CCc3cccc1c32 (centres unmarked) [Compound 24] | 3300 |
| O=C1CCCN1C1CC(c2cccc(Cl)c2Cl)N2CCc3cccc1c32 (centres unmarked) [Compound 2] | 5000 |

| Compound | IC50 [nM] |
| --- | --- |
| O=C1CCCN1C1CC(c2cccc(-c3ccc(C(F)(F)F)cc3)c2)N2CCc3cccc1c32 (centres unmarked) [Compound 43] | 7400 |
| O=C1CCCN1C1CC(c2cccc(C(F)(F)F)c2)N2CCc3cccc1c32 (centres unmarked) [Compound 7] | 4500 |
| Cc1ccc(C2CC(N3CCCC3=O)c3cccc4c3N2CC4)cc1[N+](=O)[O-] (centres unmarked) [Compound 19] | 3300 |
| O=C1CCCN1C1CC(c2ccc(Cl)c([N+](=O)[O-])c2)N2CCc3cccc1c32 (centres unmarked) [Compound 14] | 6000 |
| CC(C)c1ccc(C2CC(N3CCCC3=O)c3cccc4c3N2CC4)cc1 (centres unmarked) [Compound 9] | 2000 |
| COc1cccc(C2CC(N3CCCC3=O)c3cc(F)cc4c3N2CC4)c1 (centres unmarked) [Compound 1, 6-(2-oxopyrrolidin-1-yl)-8-fluoro-4-(3-methoxyphenyl)-1,2,5,6-tetrahydro-4H-pyrrolo[3,2,1-ij]quinoline] | 29000 |
| O=C1CCCN1C1CC(c2cc(C(F)(F)F)cc(C(F)(F)F)c2)N2CCc3cccc1c32 (centres unmarked) [Compound 13] | 5690 |
| O=C1CCCN1C1CC(c2ccccc2Cl)N2CCc3cccc1c32 (centres unmarked) [Compound 16] | 3100 |
| O=C1CCCN1C1CC(c2ccc(Br)cc2F)N2CCc3cccc1c32 (centres unmarked) [Compound 18] | 2100 |
| O=C1CCCN1C1CC(c2cccc3c2OCO3)N2CCc3cccc1c32 (centres unmarked) [Compound 34] | 4800 |
| COc1cccc(C2CC(N(C)C(C)=O)c3cccc4c3N2CC4)c1 (centres unmarked) [Compound 38] | 2100 |
| O=C1CCCN1C1CC(c2cccc(OCc3ccccc3)c2)N2CCc3cc(F)cc1c32 (centres unmarked) [Compound 40] | 2700 |
| COc1cccc(C2CC(N3CCCC3=O)c3cccc4c3N2CC4)c1 (centres unmarked) [Compound 31] | 2000 |
| Cc1ccc(C2CC(N3CCCC3=O)c3cccc4c3N2CC4)cc1 (centres unmarked) [Compound 17] | 2600 |
| O=C1CCCN1C1CC(c2ccc(-c3ccccc3[N+](=O)[O-])o2)N2CCc3cccc1c32 (centres unmarked) [Compound 37] | 260 |
| COc1ccc(OC)c(C2CC(N3CCCC3=O)c3cccc4c3N2CC4)c1 (centres unmarked) [Compound 27] | 2100 |
| O=C1CCCN1C1CC(c2ncc(C(F)(F)F)cc2Cl)N2CCc3cccc1c32 (centres unmarked) [Compound 22] | 1700 |
| O=C1CCCN1C1CC(c2ccc(Cl)cc2Cl)N2CCc3cccc1c32 (centres unmarked) [Compound 23] | 4000 |
| COc1cccc(C2CC(N3CCCC3=O)c3cccc4c3N2CC4)c1OC (centres unmarked) [Compound 25] | 190 |
| COc1ccc(Oc2cccc(C3CC(N4CCCC4=O)c4cccc5c4N3CC5)c2)cc1 (centres unmarked) [Compound 33] | 2100 |
| O=C1CCCN1C1CC(c2ccccc2Br)N2CCc3cccc1c32 (centres unmarked) [Compound 12] | 2500 |
| CCOc1ccccc1C1CC(N2CCCC2=O)c2cccc3c2N1CC3 (centres unmarked) [Compound 26] | 1400 |
